Data published in patent EP0139891A2, “Pharmaceutical compositions with antibiotic-immunostimulating activity” (B.T.B. INDUSTRIA CHIMICA S.p.A., priority 1983, dated 1985).
Values after ≈ are worked out from the molar mass of the structure shown. Counter-ions that a name gives are not always drawn.

Legend:
K562 = assay: Natural killer activity test on lymphocytes of treated patients; assay type: in vivo; details: same patients and doses, percentage of aspecific lysis of K562
Method: (§1) of F.F.001 was investigated in a clinical research on patients affected by chronic bronchial infection. The immunostimulating action was determined through the monitorage of the phagocytary and NK cells activity.
This test consists in the determination of the percentage of aspecific lysis of a human tumoral target, K562, mediated by circulating lymphocytes.
The lymphocytes were isolated by centrifuging heparinized blood at a 1:1 dilution with physiologic solution or with a solution of "Hanks" salts of "Ficol".
After 30 min. of centrifugation at 1000 r.p.m. a band of stratified leucocytes was obtained over the "Ficol" level.
At the same time the K562 were labelled with ^51Cr by adding the radioisotope solution to a suspension containing […] in 0.5 ml of colture medium.
After 45 min. of incubation at 37 degrees C the cells were washed three times with a solution of "Hanks" salts.
The labelled cells were then incubated with leucocytes at 37 degrees C at various ratios for 4 h, after which the percentage of […] release was determined in the supernatant and assumed to be directly proportional to the K562 cell lysis mediated by leucocytes.
(§2) In the groups 1), 3), 4) and 5) the dose of erythromycin was always 1 gram; in the groups 2), 3), 4) and 5) the corresponding dose of inosine was 182 mg.

St Albus ATCC 12228 = assay: Phagocytosis test on phagocytes of treated patients; assay type: in vivo; details: patients with chronical bronchitis, erythromycin 1 gram and/or inosine 182 mg
Method: as §1
2 Ml of a phagocytes suspension (10^6 phagocy- tes/ml) was mixed up in a sterile test tube with 2 ml of St Albus ATCC 12228 (10^6 microorganisms/ ml) suspended in Gelatine "Hanks-solution" with 10% AB serum and 0.4 ml of AB serum.
The mixture was then incubated at 37 degrees C under continuous stirring. 2 Ml of St Albus ATCC 12228 suspended in gelatine "Hanks-solution" with 10% of AB serum (10^6 microorganisms/ml) were mixed up in another sterile test tube with 2.04 ml of Gelatine "Hanks-solution" and incubated under the same conditions described above.
At regular time intervals (0-30 min.-60 min.-90 min.) aliquots of the suspension corresponding to 0.5 ml were added to 1.5 Ml of Gelatine "Hanks-so lution" previously cooled to 4 degrees in order to stop the phagocytosis process.
The samples were then centrifuged for 4 min. at 110 r.p.m. in order to obtain the complete sedimen tation of the leucocytes, while the upper phase consisted of a suspension containing the bacteria (supernatant).
The supernatant liquid was then diluted with a
sterile saline solution (Bacto-haemogglutination Soerensen buffer) at a 1:10 ratio, in order to be sure that at least the last dilution contained a number of living bacteria ranging between 100 and 1000/ml.
Aliquots of 0.1 ml of bacterial suspension were then taken from the […] dilutions and both of them were pipetted on a plate containing Diagnostic Sensitive Test Agar (Oxoid) and immedia tely distributed on the whole surface with a sterile spatula.
The plates were incubated at 37 degrees C for 24 h and the number of colonies was then determined with a colony counter.
The same procedure was followed after having withdrawn aliquots of 0.5 ml of bacterial suspension from the test tube.
Phagocytosis, as a function of time, was determined in vitro and can be expressed as the reduction percent of the number of living bacteria deter mined at the beginning of the experiment (No). [formula]
F(t) is the phagocytosis index after t min., while Nt is the number of living bacteria after t min.
as §2

pneumococ bacteria = assay: Antibacterial in vivo activity in infected rats; design: species or system Sprague-Dawley rats; details: rats infected with LD100 of pneumococ bacteria; orally every twelve hours 25 mg/kg as erythromycin base; 8 days observation
Method: 60 Sprague-Dawley rats of both sexes (3 lots of 20 animals each) were infected with an LD100 of pneumococ bacteria. Said LD100 was determined in 10^6C.F.U. and was given to the rats through tracheal cannula. The death of the animals occurred at the 3rd-4th day. The observation period lasted 8 days.
The obtained results are reported in the fol lowing Table I and are expressed as per cent mortalities over the controls.
Both the dead and the survived animals underwent a hystological examination of the main organs, namely lungs, liver, kidneys, heart and brain.

S. pyogenes = assay: Antibacterial in vitro activity (M.I.C.); assay type: cell-based; details: micrograms of substance per ml of bacterial suspension
Method: (§3) The M.I.C.s were determined against three pathogenic bacterial strains, and are expressed as micrograms of substance per ml of bacterial suspension […].

S. aureus = assay: Antibacterial in vitro activity (M.I.C.); assay type: cell-based; details: micrograms of substance per ml of bacterial suspension
Method: as §3

H. influenzae = assay: Antibacterial in vitro activity (M.I.C.); assay type: cell-based; details: micrograms of substance per ml of bacterial suspension
Method: as §3

[1] = Acute toxicity after oral administration; details: in vivo, rat
[2] = 0 hours (moment of administration)
[3] = 0 hours (moment of administration), reduction percent of living bacteria

With OC[C@H]1O[C@@H](n2cnc3c(O)ncnc32)[C@H](O)[C@@H]1O [Inosine, inosine] the NK-test (K562; [2]) was 4.5-19.0, the NK-test (K562; 2 hours after administration) was 10.0-56.5 and the NK-test (K562; 4 hours after administration) was 4.5-19.0. For the same compound, the NK-test (K562; 6 hours after administration) was 4.5-19.0, the NK-test (K562; 8 hours after administration) was 4.5-19.0 and the NK-test (K562; 24 hours after administration) was 4.5-19.0. The phagocytosis (St Albus ATCC 12228; [3]) was 5-19, the phagocytosis (St Albus ATCC 12228; 2 hours after administration) was 10-50 and the phagocytosis (St Albus ATCC 12228; 4 hours after administration) was 5-19. For the same compound, the phagocytosis (St Albus ATCC 12228; 6 hours after administration) was 5-19, the phagocytosis (St Albus ATCC 12228; 8 hours after administration) was 5-19 and the phagocytosis (St Albus ATCC 12228; 24 hours after administration) was 5-19.

With “salt of erythromycin propionate with inosine-5-phosphoric acid in the molar ratio 2:1 [F.F.001]” the NK-test (K562; [2]) was 4.9-21.7, the NK-test (K562; 2 hours after administration) was 45.8-68 and the NK-test (K562; 4 hours after administration) was 47.3-70.1. The NK-test (K562; 6 hours after administration) was 48.0-71.1, the NK-test (K562; 8 hours after administration) was 50.2-74.2 and the NK-test (K562; 24 hours after administration) was 4.9-21.7. For the same compound, the phagocytosis (St Albus ATCC 12228; [3]) was 5-20, the phagocytosis (St Albus ATCC 12228; 2 hours after administration) was 16-62 and the phagocytosis (St Albus ATCC 12228; 4 hours after administration) was 16-62. For the same compound, the phagocytosis (St Albus ATCC 12228; 6 hours after administration) was 16-62, the phagocytosis (St Albus ATCC 12228; 8 hours after administration) was 34-82 and the phagocytosis (St Albus ATCC 12228; 24 hours after administration) was 5-20. The Mortality (pneumococ bacteria) was 0%, the “minimum inhibiting concentration (M.I.C.)” value (S. pyogenes) was 0.036 ℓ/ml and the “minimum inhibiting concentration (M.I.C.)” value (S. aureus) was 0.31 ℓ/ml. For the same compound, the “minimum inhibiting concentration (M.I.C.)” value (H. influenzae) was 0.31 ℓ/ml.

In the case of CCOC(=O)CCC(=O)O[C@H]1[C@H](O[C@@H]2[C@@H](C)[C@H](O[C@H]3C[C@@](C)(OC)[C@@H](O)[C@H](C)O3)[C@@H](C)C(=O)O[C@H](CC)[C@@](C)(O)[C@H](O)[C@@H](C)C(=O)[C@H](C)C[C@@]2(C)O)O[C@H](C)C[C@@H]1N(C)C [F.F.002, salt of erythromycin ethylsuccinate with inosine-5-phosphoric acid in the molar ratio 2:1], the NK-test (K562; [2]) is reported as 5.2-17.8, the NK-test (K562; 2 hours after administration) is reported as 44.9-68.2 and the NK-test (K562; 4 hours after administration) is reported as 46.1-69.8. For the same compound, the NK-test (K562; 6 hours after administration) was 50.1-71.8, the NK-test (K562; 8 hours after administration) was 52.9-76.1 and the NK-test (K562; 24 hours after administration) was 5.2-17.8. The phagocytosis (St Albus ATCC 12228; [3]) was 5-20, the phagocytosis (St Albus ATCC 12228; 2 hours after administration) was 16-62 and the phagocytosis (St Albus ATCC 12228; 4 hours after administration) was 16-62. For the same compound, the phagocytosis (St Albus ATCC 12228; 6 hours after administration) was 16-62, the phagocytosis (St Albus ATCC 12228; 8 hours after administration) was 34-82 and the phagocytosis (St Albus ATCC 12228; 24 hours after administration) was 5-20.

For CC[C@H]1OC(=O)[C@H](C)[C@@H](O[C@H]2C[C@@](C)(OC)[C@@H](O)[C@H](C)O2)[C@H](C)[C@@H](O[C@@H]2O[C@H](C)C[C@H](N(C)C)[C@H]2O)[C@](C)(O)C[C@@H](C)C(=O)[C@H](C)[C@@H](O)[C@]1(C)O [Erythromycin, erythromycin], the NK-test (K562; [2]) was 7.4-23.0, the NK-test (K562; 2 hours after administration) was 7.4-23.0 and the NK-test (K562; 4 hours after administration) was 7.4-23.0. For the same compound, the NK-test (K562; 6 hours after administration) was 7.4-23.0, the NK-test (K562; 8 hours after administration) was 45.3-67.8 and the NK-test (K562; 24 hours after administration) was 7.4-23.0. For the same compound, the phagocytosis (St Albus ATCC 12228; [3]) was 8-24, the phagocytosis (St Albus ATCC 12228; 2 hours after administration) was 8-24 and the phagocytosis (St Albus ATCC 12228; 4 hours after administration) was 8-24. For the same compound, the phagocytosis (St Albus ATCC 12228; 6 hours after administration) was 8-24, the phagocytosis (St Albus ATCC 12228; 8 hours after administration) was 31-60 and the phagocytosis (St Albus ATCC 12228; 24 hours after administration) was 8-24. For the same compound, the LD50 [1] was > 6000 mg/kg and the Mortality (pneumococ bacteria) was 5%.

Work on CCC(=O)O[C@H]1[C@H](O[C@@H]2[C@@H](C)[C@H](O[C@H]3C[C@@](C)(OC)[C@@H](O)[C@H](C)O3)[C@@H](C)C(=O)O[C@H](CC)[C@@](C)(O)[C@H](O)[C@@H](C)C(=O)[C@H](C)C[C@@]2(C)O)O[C@H](C)C[C@@H]1N(C)C [Er. prop., erythromycin propionate] yielded a Mortality (pneumococ bacteria) of 5%, an MIC (S. pyogenes; Streptococcus pyogenes, read-out: minimum inhibiting concentration (M.I.C.)) of 0.04 µg/mL (≈ 0.0506 µM) and an MIC (S. aureus; Staphylococcus aureus, read-out: minimum inhibiting concentration (M.I.C.)) of 0.35 µg/mL (≈ 0.443 µM). For the same compound, the MIC (H. influenzae; Haemophilus influenzae, read-out: minimum inhibiting concentration (M.I.C.)) was 0.31 µg/mL (≈ 0.392 µM).
